# Laboratory results: the NIST ThermoML archive (doi:10.1016/j.fluid.2008.09.022)
# Numbers after ± are expanded uncertainties.
# Assay: relative permittivity at various frequencies (dimensionless)
# Conditions: Liquid, Frequency=0.01 MHz, Parallel plate capacitor
smiles,measurement,setting,value
"CC(F)(F)F [1,1,1-trifluoroethane]",relative permittivity,"218.12 K, 2000 kPa",16.968 ± 0.035
same,relative permittivity,"218.13 K, 3000 kPa",17.006 ± 0.035
same,relative permittivity,"218.16 K, 4000 kPa",17.043 ± 0.035
same,relative permittivity,"218.17 K, 5000 kPa",17.076 ± 0.035
same,relative permittivity,"218.18 K, 11000 kPa",17.303 ± 0.034
same,relative permittivity,"218.19 K, 6000 kPa",17.111 ± 0.035
same,relative permittivity,"218.21 K, 7000 kPa",17.147 ± 0.034
same,relative permittivity,"218.22 K, 10000 kPa",17.264 ± 0.034
same,relative permittivity,"218.23 K, 8000 kPa",17.184 ± 0.034
same,relative permittivity,"218.23 K, 9000 kPa",17.224 ± 0.035
same,relative permittivity,"218.24 K, 12000 kPa",17.326 ± 0.034
same,relative permittivity,"218.43 K, 13000 kPa",17.338 ± 0.034
same,relative permittivity,"218.45 K, 14000 kPa",17.37 ± 0.034
same,relative permittivity,"218.48 K, 15000 kPa",17.403 ± 0.034
same,relative permittivity,"223.96 K, 15000 kPa",16.732 ± 0.034
same,relative permittivity,"223.97 K, 13000 kPa",16.66 ± 0.034
same,relative permittivity,"223.97 K, 14000 kPa",16.696 ± 0.034
same,relative permittivity,"223.98 K, 12000 kPa",16.622 ± 0.034
same,relative permittivity,"224 K, 2000 kPa",16.227 ± 0.034
same,relative permittivity,"224 K, 3000 kPa",16.267 ± 0.034
same,relative permittivity,"224 K, 4000 kPa",16.308 ± 0.034
same,relative permittivity,"224 K, 5000 kPa",16.349 ± 0.034
same,relative permittivity,"224 K, 6000 kPa",16.389 ± 0.034
same,relative permittivity,"224 K, 7000 kPa",16.432 ± 0.034
same,relative permittivity,"224 K, 8000 kPa",16.486 ± 0.034
same,relative permittivity,"224 K, 9000 kPa",16.506 ± 0.034
same,relative permittivity,"224 K, 10000 kPa",16.547 ± 0.034
same,relative permittivity,"224 K, 11000 kPa",16.582 ± 0.034
same,relative permittivity,"232.97 K, 14000 kPa",15.659 ± 0.033
same,relative permittivity,"232.97 K, 15000 kPa",15.697 ± 0.033
same,relative permittivity,"232.98 K, 13000 kPa",15.622 ± 0.033
same,relative permittivity,"232.99 K, 9000 kPa",15.465 ± 0.033
same,relative permittivity,"232.99 K, 10000 kPa",15.503 ± 0.033
same,relative permittivity,"232.99 K, 12000 kPa",15.581 ± 0.033
same,relative permittivity,"233 K, 6000 kPa",15.343 ± 0.033
same,relative permittivity,"233 K, 7000 kPa",15.387 ± 0.033
same,relative permittivity,"233 K, 8000 kPa",15.424 ± 0.033
same,relative permittivity,"233 K, 11000 kPa",15.543 ± 0.033
same,relative permittivity,"233.01 K, 2000 kPa",15.164 ± 0.033
same,relative permittivity,"233.01 K, 3000 kPa",15.207 ± 0.033
same,relative permittivity,"233.01 K, 4000 kPa",15.253 ± 0.033
same,relative permittivity,"233.01 K, 5000 kPa",15.298 ± 0.033
same,relative permittivity,"243.15 K, 14000 kPa",14.59 ± 0.031
same,relative permittivity,"243.15 K, 15000 kPa",14.629 ± 0.031
same,relative permittivity,"243.16 K, 2000 kPa",14.061 ± 0.032
same,relative permittivity,"243.16 K, 3000 kPa",14.108 ± 0.032
same,relative permittivity,"243.16 K, 4000 kPa",14.158 ± 0.032
same,relative permittivity,"243.16 K, 5000 kPa",14.203 ± 0.032
same,relative permittivity,"243.16 K, 6000 kPa",14.254 ± 0.032
same,relative permittivity,"243.16 K, 7000 kPa",14.298 ± 0.032
same,relative permittivity,"243.16 K, 9000 kPa",14.386 ± 0.032
same,relative permittivity,"243.16 K, 10000 kPa",14.43 ± 0.031
same,relative permittivity,"243.16 K, 11000 kPa",14.469 ± 0.031
same,relative permittivity,"243.16 K, 12000 kPa",14.51 ± 0.031
same,relative permittivity,"243.16 K, 13000 kPa",14.552 ± 0.031
same,relative permittivity,"243.17 K, 8000 kPa",14.34 ± 0.032
same,relative permittivity,"253.13 K, 2000 kPa",13.05 ± 0.031
same,relative permittivity,"253.13 K, 6000 kPa",13.264 ± 0.031
same,relative permittivity,"253.13 K, 8000 kPa",13.362 ± 0.03
same,relative permittivity,"253.13 K, 9000 kPa",13.407 ± 0.03
same,relative permittivity,"253.13 K, 15000 kPa",13.669 ± 0.03
same,relative permittivity,"253.14 K, 3000 kPa",13.106 ± 0.031
same,relative permittivity,"253.14 K, 4000 kPa",13.16 ± 0.031
same,relative permittivity,"253.14 K, 5000 kPa",13.209 ± 0.031
same,relative permittivity,"253.14 K, 7000 kPa",13.311 ± 0.031
same,relative permittivity,"253.14 K, 10000 kPa",13.455 ± 0.03
same,relative permittivity,"253.14 K, 11000 kPa",13.5 ± 0.03
same,relative permittivity,"253.14 K, 12000 kPa",13.543 ± 0.03
same,relative permittivity,"253.14 K, 14000 kPa",13.628 ± 0.03
same,relative permittivity,"253.15 K, 13000 kPa",13.585 ± 0.03
same,relative permittivity,"263.02 K, 2000 kPa",12.145 ± 0.03
same,relative permittivity,"263.02 K, 12000 kPa",12.685 ± 0.029
same,relative permittivity,"263.02 K, 13000 kPa",12.733 ± 0.029
same,relative permittivity,"263.03 K, 3000 kPa",12.203 ± 0.03
same,relative permittivity,"263.03 K, 4000 kPa",12.264 ± 0.03
same,relative permittivity,"263.03 K, 6000 kPa",12.379 ± 0.03
same,relative permittivity,"263.03 K, 7000 kPa",12.431 ± 0.03
same,relative permittivity,"263.03 K, 8000 kPa",12.485 ± 0.03
same,relative permittivity,"263.03 K, 10000 kPa",12.586 ± 0.029
same,relative permittivity,"263.03 K, 11000 kPa",12.636 ± 0.029
same,relative permittivity,"263.03 K, 14000 kPa",12.777 ± 0.029
same,relative permittivity,"263.03 K, 15000 kPa",12.821 ± 0.029
same,relative permittivity,"263.04 K, 5000 kPa",12.319 ± 0.03
same,relative permittivity,"263.04 K, 9000 kPa",12.536 ± 0.029
same,relative permittivity,"274.42 K, 2000 kPa",11.141 ± 0.029
same,relative permittivity,"274.42 K, 3000 kPa",11.215 ± 0.029
same,relative permittivity,"274.42 K, 4000 kPa",11.284 ± 0.029
same,relative permittivity,"274.43 K, 5000 kPa",11.346 ± 0.029
same,relative permittivity,"274.43 K, 6000 kPa",11.411 ± 0.028
same,relative permittivity,"274.43 K, 7000 kPa",11.471 ± 0.028
same,relative permittivity,"274.43 K, 9000 kPa",11.588 ± 0.028
same,relative permittivity,"274.43 K, 10000 kPa",11.644 ± 0.028
same,relative permittivity,"274.43 K, 12000 kPa",11.749 ± 0.028
same,relative permittivity,"274.44 K, 8000 kPa",11.528 ± 0.028
same,relative permittivity,"274.44 K, 11000 kPa",11.696 ± 0.028
same,relative permittivity,"274.44 K, 13000 kPa",11.798 ± 0.028
same,relative permittivity,"274.44 K, 14000 kPa",11.846 ± 0.028
same,relative permittivity,"274.44 K, 15000 kPa",11.895 ± 0.028
same,relative permittivity,"283.16 K, 2000 kPa",10.568 ± 0.029
same,relative permittivity,"283.16 K, 3000 kPa",10.641 ± 0.029
same,relative permittivity,"283.16 K, 4000 kPa",10.72 ± 0.028
same,relative permittivity,"283.16 K, 5000 kPa",10.796 ± 0.028
same,relative permittivity,"283.17 K, 6000 kPa",10.867 ± 0.028
same,relative permittivity,"283.17 K, 7000 kPa",10.936 ± 0.028
same,relative permittivity,"283.17 K, 8000 kPa",11.002 ± 0.028
same,relative permittivity,"283.17 K, 9000 kPa",11.066 ± 0.028
same,relative permittivity,"283.18 K, 10000 kPa",11.125 ± 0.028
same,relative permittivity,"283.18 K, 11000 kPa",11.183 ± 0.028
same,relative permittivity,"283.18 K, 12000 kPa",11.239 ± 0.028
same,relative permittivity,"283.19 K, 13000 kPa",11.293 ± 0.028
same,relative permittivity,"283.19 K, 14000 kPa",11.346 ± 0.028
same,relative permittivity,"283.2 K, 15000 kPa",11.397 ± 0.027
same,relative permittivity,"294.1 K, 2000 kPa",9.617 ± 0.03
same,relative permittivity,"294.1 K, 3000 kPa",9.7189 ± 0.029
same,relative permittivity,"294.11 K, 4000 kPa",9.8137 ± 0.029
same,relative permittivity,"294.11 K, 5000 kPa",9.9019 ± 0.029
same,relative permittivity,"294.11 K, 6000 kPa",9.9864 ± 0.029
same,relative permittivity,"294.11 K, 7000 kPa",10.066 ± 0.029
same,relative permittivity,"294.11 K, 9000 kPa",10.213 ± 0.029
same,relative permittivity,"294.11 K, 10000 kPa",10.281 ± 0.029
same,relative permittivity,"294.11 K, 11000 kPa",10.347 ± 0.029
same,relative permittivity,"294.11 K, 15000 kPa",10.585 ± 0.028
same,relative permittivity,"294.12 K, 8000 kPa",10.141 ± 0.029
same,relative permittivity,"294.12 K, 12000 kPa",10.409 ± 0.028
same,relative permittivity,"294.12 K, 13000 kPa",10.469 ± 0.028
same,relative permittivity,"294.12 K, 14000 kPa",10.526 ± 0.028
